Assay results as given in patent US20220002399A1, “METHODS FOR DECREASING INFLUENZA-INDUCED LETHALITY USING GASTRIN-RELEASING PEPTIDE (GRP) INHIBITORS OR GASTRIN-RELEASING PEPTIDE RECEPTOR (GRPR) ANTAGONISTS” (University of Maryland, Baltimore, priority 2018, published 2022).
Ends that are not written are not given here.

Columns and labels:
[1] = test system: pulmonary neuroendocrine cells (PNECs); test: IHC staining for pulmonary neuroendocrine cells (PGP 9.5, GRP) in influenza-infected mice; format: in vivo, WT C57BL/6J mice
Excerpt: FIG. 4. IHC staining for pulmonary neuroendocrine cells (PNECs), PGP 9.5, and GRP in influenza-infected mice. Lung sections from FIG. 3 were stained in a mock-infected, c PR8+vehicle, and e PR8+NSC77427 for neural/neuroendocrine-specific PGP 9.5, or in b mock-infected, d PR8+vehicle, and f PR8+NSC77427 for GRP, a neuroendocrine granule marker. Scale bars shown are 50 μm for a-d, and 10 μm for e and f. Arrows are positioned in each panel within a treatment group to indicate groups of positive cells, except in b, where the arrow indicates GRP− cells adjacent to the PGP 9.5+ cells shown in a. g Graphic image analysis of PGP 9.5+ and GRP+ cells after IHC staining. Slides were blinded by an observer with no knowledge of experimental groups. PCP9.5+ and GRP+ cells were counted throughout each complete lung lobe crosssection for each animal, with validation by x40 micrographs of each slide. Total tissue area was determined by using ImageI thresholding analysis (methyl green counterstain) because PNECs are mainly observed in alveolar ducts and small bronchioles. *p=0.009; **p=0.001
Immunohistochemical (IHC) staining for the mature GRP peptide (a PNEC granule marker) and PGP 9.5 (the neural/NE cytoplasmic isoform of ubiquitin-C-terminal hydrolase-1) was carried out as described previously. In brief, formalin-fixed, paraffin-embedded lung sections were treated for 10 min with Triton X-100 (0.3% in phosphate-buffered saline (PBS)), then normal serum blocking. Diluted primary antibodies were added to sections overnight at 4° C., followed by washing in PBS and incubation for 2 h at 4° C. with 1:200 dilution of biotinylated secondary antibodies (Vector, Burlingame, Calif., USA). After blocking in 3% H2O2 in methanol, Vector ABC Elite was applied to slides for 30 min. Slides were developed by using diaminobenzidine and H2O2, and then counterstained in 2% aqueous methyl green. All slides were blinded for semi-quantitative analysis. Results are expressed as mean numbers of cells positive for PGP 9.5 or GRP per mm^2 lung tissue section. […]

[2] = test system: influenza-induced cytokine induction; test: Lung cytokine gene expression by qRT-PCR in PR8-infected mice; format: in vivo, WT C57BL/6J mice; set-up: lung mRNA expression of IFN-β: dose or concentration left out as unconfirmed
[3] = test system: LPS signaling (TLR4) in WT C57BL/6J peritoneal macrophages; test: LPS signaling in peritoneal macrophages pre-treated with GRP inhibitor or GRPR antagonist; format: cell-based, mouse; conditions: 0.5 μM pre-treatment 1 h, then LPS (10 ng/ml) 2 h
[4] = test system: GRP-induced angiogenesis; conditions: 0.5 μM; in vitro and in vivo; cited from earlier work
[5] = test system: radiation-induced pneumonitis/fibrosis; conditions: therapeutic administration; cited from earlier work
[6] = test system: LPS signaling (TLR4) in WT C57BL/6J peritoneal macrophages; format: cell-based, mouse; conditions: 2 h
[7] = 20 μM/mouse i.v. daily day 2 to 6

Row | Compound | fewer PGP+ PNECs vs. PR8-infected untreated ([1]; NSC77427 days 2 to 6, IHC image analysis, p=0.009) [%] | GRP immunostaining in the extracellular matrix ([1]; PR8-infected, NSC77427 days 2 to 6) | decrease in GRP+ PNECs ([1]; PR8-infected, NSC77427 days 2 to 6, IHC image analysis, p=0.001) [%] | lung mRNA expression of IL-1β [2, 7] | lung mRNA expression of RANTES [2, 7] | lung mRNA expression of TNF-α [2, 7] | lung mRNA expression of IFN-β ([2]; i.v. daily day 2 to 6) | LPS-induced MyD88-dependent (TNF-α) or TRIF-dependent (IFN-β, RANTES) gene expression [3] | GRP-induced angiogenesis [4] | lung injury [5] | MyD88-dependent and TRIF-dependent cytokine gene expression with suboptimal LPS ([6]; GRP 1-100 nM plus LPS 0.1 and 1 ng/ml) | synergistic effect with LPS at higher doses of LPS ([6]; GRP 1-100 nM plus LPS up to 10 ng/ml) | cytokine gene expression, GRP alone ([6]; GRP 1-100 nM, no LPS)
1 | Nc1nc(Cl)cc(NCCO)n1 [NSC77427, 2-[(2-amino-6-chloropyrimidin-4-yl)amino]ethanol] | ~50 | visibly less | ~70 | blunted | blunted | blunted | blunted | did not block | blocked GRP-induced angiogenesis | mitigated |  |  | 
2 | GRP: exogenous gastrin-releasing peptide added to macrophages with LPS (VPLPAGGGTVLTKMYPRGNHWAVGHLM; ends and bridges not checked; UniProt P07492 24-50, looked up) |  |  |  |  |  |  |  |  |  |  | synergistic induction | largely lost | did not induce cytokine gene expression
